How the values were obtained:
Format in all cases: in vivo
Heliothis virescens = assay: B.4 Tobacco Budworm, microtiter plate diet test; conditions: 120 h, egg and larval mortality, 5 days, read-out: mortality in comparison with untreated controls
Description: For evaluating control of Tobacco Budworm, the test unit consisted of 96-well-microtiter plates containing an insect diet and 15-25 H. virescens eggs. The compounds were formulated using a solution containing 75% v/v water and 25% v/v DMSO. Different concentrations of formulated compounds were sprayed onto the insect diet at 10 μl, using a custom-built micro atomizer, at two replications. After application, microtiter plates were incubated at about 28±1° C. and about 80±5% relative humidity for 5 days. Egg and larval mortality was then visually assessed.

Nezara viridula = assay: B.8 Green Soldier Stink Bug, soybean pod spray test; conditions: 120 h, late 3rd instar, after 5 days, read-out: mortality in comparison with untreated controls
Description: The active compound was dissolved at the desired concentration in a mixture of 1:1 (vol:vol) distilled water:aceteone. Surfactant (Kinetic) was added at a rate of 0.01% (vol/vol). The test solution was prepared at the day of use. Soybean pods were placed in 90×50 mm glass Petri dishes lined with moistened filter paper and inoculated with ten late 3rd instar N. viridula. Using a hand atomizer, an approximately 2 ml solution was sprayed into each Petri dish. Treated setup was kept at about 25-26° C. and relative humidity of about 65-70%. Percent mortality was recorded after 5 days.

Nephotettix virescens = assay: B.9 Rice Green Leafhopper, rice seedling spray test; conditions: adults, after 72 hours, read-out: mortality in comparison with untreated controls
Description: Four to five-week old rice seedlings with cut upper leaf portion were cleaned and washed 24 hours before spraying. The active compounds were formulated in 1:1 acetone:water (vol:vol), and 0.01% vol/vol surfactant (Kinetic) was added. Potted rice seedlings were sprayed with 5-6 ml test solution, air dried, covered with Mylar cages and inoculated with 10 adults. Treated rice plants were kept at about 28-29° C. and relative humidity of about 50-60%. Percent mortality was recorded after 72 hours.

O=C(Nc1ncc(F)cc1F)c1cc(OC2=NOC(c3cc(Cl)c(F)c(Cl)c3)(C(F)(F)F)C2)ccc1Cl (stereo not drawn) [II-8, 2-chloro-5-[[5-(3,5-dichloro-4-fluoro-phenyl)-5-(trifluoromethyl)-4H-isoxazol-3-yl]oxy]-N-(3,5-difluoro-2-pyridyl)benzamide]
≥ 75%: mortality at 2500 ppm (Heliothis virescens) | mortality at 300 ppm (Nezara viridula) | mortality at 300 ppm (Nephotettix virescens)
